In patent US12527788B2, “Defining RNA-small molecule affinity landscapes enables design of a small molecule inhibitor of an oncogenic non-coding RNA” (University of Florida Research Foundation, Incorporated, priority 2017, dated 2026):
pIC50: −log10 of the molar value.

What was measured:
[1] = test system: 5′GAU/3′C_A (A bulge of pre-miR-18a); assay: HiT-StARTS Fitness Score, 3×2 ILL selection; format: binding, human; conditions: Zobs normalized to most significant binder
Text: (§1) Additionally, Zobs Rank (and by analogy Zobs) can also be used to estimate the affinities of binding interactions (FIG. 5). Single exponential curves with an asymptote defined a correlation between Zobs and experimentally determined Kd for each compound and its cognate RNA motifs. In all cases, there is excellent correlation with R values ranging from 0.86 to 0.96. These scoring functions can provide a means to rapidly profile small molecules for binding to an “on-” and “off-” targets, as mentioned above. Zobs values were normalized to the most statistically significant RNA binder (100% Fitness) to afford Fitness Scores.
(§2) To test the general applicability of these approaches to other RNA motif libraries, we used 2DCS to select RNA motifs derived from a 3×2 internal loop library (3×2 ILL) that bind to small molecules 1-8. […] That is, selective binders have Zobs>8 (p<0.0001) and relative Zobs defined a scoring function for the selected RNA motif-small molecule interactions.
(§3) These studies identified that compound 4 bound with 100% Fitness to the 5′ G_U/3′CUA (one nucleotide U bulge) that is present in the Dicer processing sites of three microRNAs (miRNAs) in the oncogenic miR-17-92 cluster (contains six mature miRNAs),^43 miR-17, -18a, and -20a. […] The binding affinity of 4 for RNAs containing these three bulges was measured (FIG. 7).
(§4) Calculating Statistical Significance (Zobs) for Selected RNAs: To determine if the difference in frequency for given RNA in the starting library and in the selection was statistically significant, a pooled population comparison (Zobs) was calculated using equations (1) and (2):
(§5) [formula] […] Where n1 is the size of population 1 (number of reads for a selected RNA); n2 is the size of population 2 (number of reads for the same RNA from sequencing of the starting library); p1 is the observed proportion of population 1 (number of reads for a selected RNA divided by the total number of reads); p2 is the observed proportion for population 2 (number of reads for the same RNA divided by the total number of reads in the starting library).

[2] = test system: 5′GGU/3′C_A (G bulge of pre-miR-17 and pre-miR-20a); assay: HiT-StARTS Fitness Score, 3×2 ILL selection; format: binding, human; conditions: Zobs normalized to most significant binder
Text: as §1, §2, §3, §4, §5

[3] = test system: 5′G_U/3′CUA (one nucleotide U bulge); assay: HiT-StARTS Fitness Score, 3×2 ILL selection; format: binding, human; conditions: Zobs normalized to most significant binder
Text: as §1, §2, §3, §4, §5

mature miR-20a = assay: RT-qPCR of mature miRNA levels in DU145 cells; format: cell-based; conditions: Homo sapiens, DU-145, read-out: IC50 for decrease of mature miRNA
Method: In particular, the mature levels of each miRNA in the cluster were studied by RT-qPCR. In agreement with our in vitro Dicer processing studies (FIG. 8A and Figures S-58-S-62), 4 decreases the amount of mature miR-17, -18a, and -20a at low micromolar concentrations with an IC50 of ˜10 µM, but has no effect on miR-19a, -19b, and -92a (FIG. 8B).
Cell Culture: DU145 cells were cultured in growth medium (Roswell Park Memorial Institute medium (RPMI) supplemented with 10% fetal bovine serum (FBS)) at 37° C. and 5% CO2
Total RNA was extracted from cells using a Quick-RNA Miniprep Kit (Zymo Research) per the manufacturer's protocol. Approximately 200 ng of total RNA was used in reverse transcription (RT) reactions, which were completed using a miScript II RT kit (Qiagen) per the manufacturer's protocol. RT-qPCR was performed on a 7900HT Fast Real Time PCR System (Applied Biosystem) using power SYBR Green Master Mix (Applied Biosystems). All primer sets were purchased from Integrated DNA Technologies, Inc. (IDT) or Eurofins (Table S1). The expression levels of mature miRNAs were normalized to U6 small nuclear RNA or 18s rRNA.

pre-miR-17 = assay: Chem-CLIP in DU145 cell lysates; format: binding, human; conditions: 10 μM, DU145 cell lysate
Method: (§6) Chem-CLIP in Cell Lysates: DU145 cells were cultured as described above in 100 mm dishes and lysed with 500 μL of Cell Lysis Buffer (10 mM Tris pH 7.4, 0.25% Igepal CA-630 and 150 mM NaCl) for 5 min at room temperature. The cell lysate was then centrifuged and the supernatant collected. Next, 10 μM of 4 was added to the lysate in 1×PBS and the sample was incubated for 2 h at room temperature. The reaction was then directly used for pull-down by incubating with 50 μL of streptavidin resin in 1×PBS for 30 min at room temperature. […] RNA was eluted from the streptavidin beads by incubation with 100 μL of 1× Elution Buffer (10 mM EDTA and 95% formamide) at 65° C. for 20 min. The eluted RNA was cleaned up using a Quick-RNA Miniprep Kit (Zymo) per the manufacturer's protocol. RT-qPCR was completed as described above using 50 ng of total RNA in the RT reaction. Expression levels were normalized to 18S rRNA.

pre-miR-18a = assay: Chem-CLIP in DU145 cell lysates; format: binding, human; conditions: 10 μM, DU145 cell lysate
Method: as §6

pre-miR-20a = assay: Chem-CLIP in DU145 cell lysates; format: binding, human; conditions: 10 μM, DU145 cell lysate
Method: as §6

Question: How did the Fitness [1] turn out when `CN1CCN(c2ccc(-c3ccc4nc(-c5cc(C(C)(C)C)c(OCCCC(=O)NCCCN=[N+]=[N-])c(C(C)(C)C)c5)[nH]c4c3)cc2)CC1` [Compound 4] was run?
Answer: 91%

Question: What about the Fitness [2] of the same compound?
Answer: 78%

Question: And the Fitness [3]?
Answer: 100%

Question: And the pIC50 (mature miR-20a)?
Answer: ~5.00

Question: And the “Enrichment in pulled-down fraction” value (pre-miR-17)?
Answer: ~2 fold

Question: What about the “Enrichment in pulled-down fraction” value (pre-miR-18a) of the same compound?
Answer: ~4 fold

Question: What about the “Enrichment in pulled-down fraction” value (pre-miR-20a) of the same compound?
Answer: ~2 fold
